Measured values as given in patent publication US20080280810A1, “PEPTIDES HAVING AFFINITY FOR BODY SURFACES” (priority 2006, published 2008).

Tests used:
[1] = Co-application of multi-block peptide with semi-permanent dye (Arianor Ebony), color retention; set-up: species or system human; key: ΔE of peptide sample minus peptide-free control; larger = better retention; conditions: difference in Delta E between peptide sample and peptide free control after 3 embrocation cycles (about 12 manual shampoos); pH 8.5-9.0; >2 benefit, >4 substantial benefit
Description: (§1) A 0.5% aqueous solution of Arianor Ebony (Sensient Technologies Corp, Milwaukee, Wis.) containing 3% benzyl alcohol and 0.05% diazolidinyl urea (biocide) was prepared. Dye insolubles were removed by filtration and the pH of the dye solution was adjusted to 8.50-9.0, using ethanolamine.
(§2) Approximately 1 mL of the dye solution was added to selected wells of a 24-well plate (Thomson Instrument Co., Oceanside, Calif.; part # 931565). A multi-block peptide (see Table 12) was dissolved in a solution consisting of 3 wt % benzyl alcohol and 95 wt % water to yield a peptide concentration of 2 wt % or approximately 20 mg/mL. The pH was adjusted to 8.5-9.0 using ethanolamine. The peptide solution was then pipetted into test wells containing dye solution in the amount of 1 mL or 0.2 mL respectively. The total volume in each test well was then adjusted to 2 mL where necessary using 3% aqueous benzyl alcohol (pH adjusted to 8.5-9.0 with ethanolamine). Peptide free controls consisted of 1 mL of dye solution diluted to 2 mL with the pH adjusted aqueous benzyl alcohol solution.
(§3) Baseline […] readings were made on one inch long tresses (see below) using an X-RITE® SP78™ Sphere Spectrophotometer (X-Rite, Inc., Grandville, Mich.), by placing the hair tress into the photosensor and calculating L*, a* and b* parameters representing the photometer response. All measurements were the average of three individual determinations.
(§4) The tresses (potted on one end with resin) of natural white, 85% gray or regular bleached hair (International Hair Importers and Products, Bellerose, N.Y.) were immersed in the peptide/dye solution and the entire well plate was agitated on a VORTEX-GENIE® 2 Mixer (Scientific Industries, Bohemia, N.Y.) at a speed setting of 1 for 30 minutes. The tresses were removed from the wells, rinsed for 30 seconds under flowing deionized water and then air dried.
(§5) The following complement of beads was then added to each well containing a hair tress: (8 beads in all; 4 Novagen Coli Rollers Plating Beads—sterilized (EMD Biosciences, San Diego, Calif.; Catalog No. 71013), 2 BioSpec 6.35 mm glass beads (BioSpec Products, Bartlesville, Okla.; Catalog No. 11079635), and 2 BioSpec 3.2 mm Stainless Steel Bead (Catalog No. 11079132ss).
(§6) Then 2.5 mL of aqueous 50% Pantene Pro V® shampoo (Proctor & Gamble Co., Cincinnati, Ohio) was pipetted into each well. The plate was placed on a VWR® VX-2500 Multi-tube Vortexer (VWR, West Chester, Pa.) for 5 minutes to simulate shampooing with embrocation. The hair tresses were then rinsed under flowing deionized water and air dried. This cycle was repeated two more times except that the length of time was 10 minutes for both subsequent embrocation cycles. (This treatment was previously determined to simulate approximately 12 manual shampoo cycles.) At the conclusion of the third embrocation cycle L*, a* and b* values were measured and Delta E values (ΔE) were calculated using equation 1 below:
(§7) where L*=the lightness variable and a* and b* are the chromaticity coordinates of CIELAB colorspace as defined by the International Commission of Illumination (CIE) (Minolta, Precise Color Communication—Color Control From Feeling to Instrumentation, Minolta Camera Co., 1996).
(§8) The Delta E value (ΔE) indicates color retention relative to the non-dyed hair and larger Delta E values indicate better performance. Values listed in the table represent the difference in Delta E values between the peptide-containing sample and the peptide free control. This difference is indicative of color retention after shampoo or water rinse treatments and positive values indicate better performance relative to the peptide free controls (Table 12).

[2] = as above; set-up: species or system human; conditions: difference in Delta E between peptide sample and peptide free control after 3 embrocation cycles (about 12 manual shampoos); pH 8.5-9.0; >2 benefit, >4 substantial benefit
Description: as §1, §2, §3, §4, §5, §6, §7, §8

[3] = Phage ELISA on pellicle coated HAP disks; assay type: binding, human; conditions: over 10^10 pfu purified phage, anti-M13 HRP conjugate, TMB, no phage control 0.218
Description: A total of 20 selected phage candidates (Example 29) were used in a phage ELISA experiment. Purified phage lysates were used for binding to pellicle HAP disks using an anti-M13 phage antibody conjugated to horseradish-peroxidase, followed by the addition of chromogenic agent TMB, obtained from Pierce Biotechnology (Rockford, Ill.). The plates were read at A450 nm.
For each phage candidate to be tested, the pellicle coated HAP disks (3 mm diameter) was incubated for 1 h at room temperature with 200 μL of blocking buffer, consisting of 2% non-fat dry milk (Schleicher & Schuell, Inc.) in TBS. The blocking buffer was removed by aspirating the liquid out of each tube. The tube was rinsed 6 times with wash buffer consisting of TBST-0.05%. The wells were filled with 200 μL of TBST-0.5% containing 1 mg/mL BSA (bovine serum albumin) and then 10 μL (over 10^10 pfu) of purified phage stock was added. The samples were incubated at room temperature for 60 min with slow shaking. The non-binding phage were removed by washing 6 times with TBST-0.5%. Then, 100 μL of horseradish peroxidase/anti-M13 antibody conjugate (Amersham USA, Piscataway, N.J.), diluted 1:500 in the blocking buffer, was added and incubated for 1 h at room temperature. The conjugate solution was removed and was washed 6 times with TBST-0.5%. TMB (3,3′,5,5′-tetramethylbenzidine) substrate (200 μL), obtained from Pierce Biotechnology (Rockford, Ill.) was added to each well and the color was allowed to develop for 5 to 30 min, typically for 10 min, at room temperature. Then, stop solution (200 μL of 2 M H2SO4) was added to each well and the solution was transferred to a 96-well plate and the A450 was measured using a microplate spectrophotometer (Molecular Devices, Sunnyvale, Calif.).

[4] = HPLC analysis of peptide uptake by hair; assay type: binding, human; conditions: 20 mM Tris pH 7.2, 0.15 M NaCl, room temperature, no dye; peptide 0.1 mg/mL (IB5A, A5) or 0.05 mg/mL (HC 71, HC 74)
Description: The purpose of this Example was to compare the speed of uptake by measuring the amount of various peptides including peptides of the invention bound to hair at different time points using a high performance liquid chromatography (HPLC) method. The peptides, HC 71, HC 74, IB5 (the hair-binding peptide sequence in HC 71), and A5 (the hair-binding peptide sequence in HC 74), were dissolved in 10 mL of 20 mM Tris, pH 7.2 buffer containing 0.15 M NaCl to give the peptide concentrations shown in Table 11. Natural white hair, 0.54 g, (International Hair Importers & Products Inc., Bellerose, N.Y.) was pre-equilibrated with 10 mL of Tris buffer for 30 min with mixing at room temperature. Then, the buffer was drained from the hair and 10 mL of one of the peptide solutions was added. The hair was incubated with the peptide solution at room temperature without mixing and samples were taken at 0, 30 and 60 min for HPLC analysis. For peptide uptake measurements in the presence of Acid Red 33 dye, the peptide solution was mixed 1:1 with an aqueous solution of the dye (0.5 wt %). Natural white hair (0.65 g) pre-wet with deionized water, was added to the peptide solutions and the solutions were incubated at room temperature without mixing. Samples were taken at time 0, 30, and 60 min for analysis by HPLC. The samples were analyzed using HPLC to determine the concentration of the peptide remaining in solution, and by difference, the amount of peptide taken up by the hair. The HPLC analysis was done using an Agilent liquid chromatograph (Agilent Technologies Inc., Wilmington, Del.) with a 5 μm Zorbax Eclipse XDB-C18 column (Agilent Technologies Inc.). The sample was diluted with distilled water containing 0.1% trifluoroacetic acid (typically a 10-fold dilution), and 5 to 50 μL was injected using a 100 μL injection loop. A solvent gradient elution was used with two solvents: Solvent A, consisting of acetonitrile with 0.1% aqueous trifluoracetic acid, and Solvent B, consisting of water with 0.1% trifluoroacetic acid. The gradient was from 10% acetonitrile to 80% acetonitrile at a rate of 1%/min over a period of 70 min. The flow rate was 1.25 mL/min. Detection was done with a photodiode array detector at 218 nm, 230 nm, and 278 nm.

Q: Which results are given for “A5-EGEGER (EQISGSLVAAPWEGEGER; Peptide having affinity for hair) [Peptide A5-EGEGER]”?
A: ΔE Retention Ebony Dye Regular Bleached Hair [1]: −1.0; ΔE Retention Ebony dye with Natural White Hair [1]: 5.7; ΔE Retention Ebony Dye with 85% Gray Hair [2]: 3.7

Q: With “A5-KRKRKD (EQISGSLVAAPWKRKRKD; Peptide having affinity for hair) [Peptide A5-KRKRKD]” as the substance, how does the “ΔE Retention Ebony Dye Regular Bleached Hair” value [1] read?
A: 1.09

Q: What about the “ΔE Retention Ebony dye with Natural White Hair” value [1] of the same substance?
A: 5.8

Q: And the “ΔE Retention Ebony Dye with 85% Gray Hair” value [2]?
A: −0.59

Q: For AHPESLGIKYALDGNSDPHA [Pell 1], which “O.D. at 450 nm” value [3] is on record?
A: 0.739

Q: With ASVSNYPPIHHLATSNTTVN [Pell 2] as the substance, how does the “O.D. at 450 nm” value [3] read?
A: 0.75

Q: With DECMEPLNAAHCWR [Pell 3] as the substance, how does the “O.D. at 450 nm” value [3] read?
A: 0.49

Q: With DECMHGSDVEFCTS [Pell 4] as the substance, how does the “O.D. at 450 nm” value [3] read?
A: 0.664

Q: For DLCSMQMMNTGCHY [Pell 5], which “O.D. at 450 nm” value [3] is on record?
A: 0.83

Q: For DLCSSPSTWGSCIR [Pell 6], which “O.D. at 450 nm” value [3] is on record?
A: 0.735

Q: With DPNESNYENATTVSQPTRHL [Pell 7] as the substance, how does the “O.D. at 450 nm” value [3] read?
A: 0.831

Q: For EPTHPTMRAQMHQSLRSSSP [Pell 8], which “O.D. at 450 nm” value [3] is on record?
A: 0.712

Q: For “EQISGSLVAAPW (Hair-Binding Peptide) [Peptide A5, reference compound]”, which “% Uptake time = 0 min” value [4] is on record?
A: 0%

Q: And the “% Uptake time = 30 min” value [4]?
A: 2%

Q: What about the “% Uptake time = 60 min” value [4] of the same substance?
A: 4%

Q: For “F4-KRKRKD (LDTSFHQVPFHQKRKRKD; Peptide having affinity for hair) [Peptide F4-KRKRKD]”, which “ΔE Retention Ebony Dye Regular Bleached Hair” value [1] is on record?
A: −2.66

Q: And the “ΔE Retention Ebony dye with Natural White Hair” value [1]?
A: 0.12

Q: And the “ΔE Retention Ebony Dye with 85% Gray Hair” value [2]?
A: 2.87

Q: With GNTDTTPPNAVMEPTVQHKW [Pell 9] as the substance, how does the “O.D. at 450 nm” value [3] read?
A: 0.755

Q: With “IB5-KRKRKD (TPPELLHGDPRSKRKRKD; Peptide having affinity for hair)” as the substance, how does the “ΔE Retention Ebony Dye Regular Bleached Hair” value [1] read?
A: −0.44

Q: What about the “ΔE Retention Ebony dye with Natural White Hair” value [1] of the same substance?
A: 4.49

Q: And the “ΔE Retention Ebony Dye with 85% Gray Hair” value [2]?
A: 1.2

Q: Which “ΔE Retention Ebony Dye Regular Bleached Hair” value [1] does the source give for “KF11-EGEGED (NTSQLSTEGEGED; Peptide having affinity for hair)” here?
A: −4.05

Q: What about the “ΔE Retention Ebony dye with Natural White Hair” value [1] of the same substance?
A: 3.6

Q: And the “ΔE Retention Ebony Dye with 85% Gray Hair” value [2]?
A: 0.94

Q: For “LDTSFHQVPFHQ (Peptide having affinity for hair) [Peptide F4, reference compound]”, which “ΔE Retention Ebony Dye Regular Bleached Hair” value [1] is on record?
A: 0.95

Q: And the “ΔE Retention Ebony dye with Natural White Hair” value [1]?
A: 5.17

Q: And the “ΔE Retention Ebony Dye with 85% Gray Hair” value [2]?
A: 3.24

Q: For NGPDMVQSVGKHKNS [Pell 10], which “O.D. at 450 nm” value [3] is on record?
A: 0.729

Q: For NGPEVRQIPANFEKL [Pell 11], which “O.D. at 450 nm” value [3] is on record?
A: 0.607

Q: Which “O.D. at 450 nm” value [3] does the source give for NNTSADNPPETDSKHHLSMS [Pell 12] here?
A: 0.521

Q: For NNTWPEGAGHTMPSTNIRQA [Pell 13], which “O.D. at 450 nm” value [3] is on record?
A: 0.598

Q: With NPTATPHMKDPMHSNAHSSA [Pell 14] as the substance, how does the “O.D. at 450 nm” value [3] read?
A: 0.7

Q: With NPTDHIPANSTNSRVSKGNT [Pell 15] as the substance, how does the “O.D. at 450 nm” value [3] read?
A: 0.567

Q: With NPTDSTHMMHARNHE [Pell 16] as the substance, how does the “O.D. at 450 nm” value [3] read?
A: 0.578

Q: Which results are given for “P-KRGRHKRPKRHK-GGG-IB5A-C (PKRGRHKRPKRHKGGGTPPELLHGAPRSC; Peptide having affinity for hair) [HC100]”?
A: ΔE Retention Ebony Dye Regular Bleached Hair [1]: −0.27; ΔE Retention Ebony dye with Natural White Hair [1]: −4.5; ΔE Retention Ebony Dye with 85% Gray Hair [2]: 4.1

Q: For TPCAPASFNPHCSR [Pell 18], which “O.D. at 450 nm” value [3] is on record?
A: 0.416

Q: For TPCATYPHFSGCRA [Pell 19], which “O.D. at 450 nm” value [3] is on record?
A: 0.731

Q: Which results are given for “TPPELLHGAPRS (Hair-binding peptide) [IB5A, reference compound]”?
A: % Uptake time = 0 min [4]: 0%; % Uptake time = 30 min [4]: 8%

Q: Which “O.D. at 450 nm” value [3] does the source give for WCTDFCTRSTPTSTSRSTTS [Pell 20] here?
A: 0.715
